Calls of active or inactive are those of the source. The rule behind the calls is not given here.
Columns and labels:
[1] = Inhibition of homologous recombination in human CRMM-1 cells at 10 uM incubated for 12 hrs by real-time PCR analysis relative to control; format: functional
CRMM-2 = experiment: Antiproliferative activity against human CRMM-2 cells assessed as cell growth inhibition incubated for 72 hrs by CCK8 assay; format: functional, cell-based; conditions: CRMM-2, 72 h
[2] = Antiproliferative activity against human CM2005.1 cells assessed as cell growth inhibition incubated for 72 hrs by CCK8 assay; format: functional, cell-based; conditions: CM2005.1, 72 h
[3] = Antiproliferative activity against human PIG1 cells assessed as cell growth inhibition incubated for 72 hrs by CCK8 assay; format: toxicity, cell-based
[4] = Antiproliferative activity against human HL7702 cells assessed as cell growth inhibition incubated for 72 hrs by CCK8 assay; format: toxicity, cell-based; conditions: HL7702 (L02) cells
[5] = Antiproliferative activity against human CM-AS16 cells assessed as cell growth inhibition incubated for 72 hrs by CCK8 assay; format: functional, cell-based; conditions: CM-AS16, 72 h
CRMM-1 [6] = experiment: Antiproliferative activity against human CRMM-1 cells assessed as cell growth inhibition incubated for 72 hrs by CCK8 assay; format: functional, cell-based; conditions: CRMM-1, 72 h
CRMM-1 [7] = experiment: Inhibition of homologous recombination in human CRMM-1 cells at 10 uM incubated for 12 hrs by real-time PCR analysis; format: functional, cell-based

SMILES	inhibition at 10 µM [1] [%]	IC50 (CRMM-2) [µM]	IC50 [2] [µM]	IC50 at 72 h [3] [µM]	IC50 at 72 h [4] [µM]	IC50 [5] [µM]	IC50 (CRMM-1 [6]) [µM]	inhibition (CRMM-1 [7])
CCCNCCCOc1cc2ccccc2cc1C(=O)CCCc1ccccc1	67.1	6.7	6.6	13.6	11.9	6.8	10.4	
O=C(CCCc1ccccc1)c1c(OCCCN2CCOCC2)ccc2ccccc12	83.2	4.2	1	18.3	31.8	4.2	2.3	
CCC(=O)NCCCOc1ccc2ccccc2c1C(=O)CCCc1ccccc1	35	9.3	37.7	19.5	29.5	9	8.2	
CCCNCC(O)COc1ccccc1 (centres undefined)		> 100				> 100		
O=C(CCc1ccccc1)c1ccccc1		> 100				> 100	> 100	
CCCCNCCCOc1ccccc1C(=O)CCCc1ccccc1	38.3	1.1	5.4	9.1	3.7	4.9	1.8	
CC(C)(C)C(=O)NCCCOc1ccc2ccccc2c1C(=O)CCCc1ccccc1	55	29.6	35.9	14.2	39.9		13.1	
C=CC(=O)NCCCOc1ccc2ccccc2c1C(=O)CCCc1ccccc1	66.9	17.2	36.9	25.7	70.2	18.2	17.3	
CCCNCC(O)COc1ccccc1C(=O)Cc1ccccc1 (centres undefined)	57.9	30.6	60	> 100	> 100	40.7	45.9	
O=C(CCCc1ccccc1)c1c(OCCCN2CCCC2)ccc2ccccc12	71	8	12.8	7.8	22	11.9	5.6	
CCCNCC(O)COc1ccccc1CCCc1ccccc1 (centres undefined)	57	20.9	9.6	15.7	19.3	6	9.2	
CCCNCC(O)COc1ccccc1C(=O)NCc1ccccc1 (centres undefined)						> 100		
CCCN(C)CC(O)COc1ccccc1C(=O)CCc1ccccc1 (centres undefined)	30.3	14.6	61.2	71.9	97.2	22.6	48.7	
CCCNCCCOc1ccc2ccccc2c1C(=O)CCCc1ccccc1	75.2	3.8	4.1	78.2	28.8	4	3.1	
CC(C)(C)CNCCCOc1ccc2ccccc2c1C(=O)CCCc1ccccc1	52.4	5.1	5.1	4	11.1	5	8.7	
CCCOCC(=O)COc1ccccc1C(=O)CCc1ccccc1	20.6	28.7	40.9	56.7	73.1	36.8	41.8	
CN1CCN(CCCOc2ccc3ccccc3c2C(=O)CCCc2ccccc2)CC1	54.2	4.2	5.9	10.4	10.5	5.2	5.6	
CCCCCC(O)COc1ccccc1C(=O)CCc1ccccc1 (centres undefined)	51.2	54.5	46.3	> 100	22.3	13.9	16.6	
O=C(CCCc1ccccc1)c1c(OCCCN2CCSC2)ccc2ccccc12	72.1	6.6	11.9	29.7	51.5	9.2	10.2	
CCCNCC(O)COc1cccc(C(=O)CCc2ccccc2)c1 (centres undefined)	52.5	22.3	38	62.4	69.1	16.5	28.3	
CCCNCC(O)COc1ccc(C(=O)CCc2ccccc2)cc1 (centres undefined)	5.5	21	56.2	26.8	44	18.9	28.5	

SMILES	inhibition at 10 µM [1] [%]	IC50 (CRMM-2) [µM]	IC50 [2] [µM]	IC50 at 72 h [3] [µM]	IC50 at 72 h [4] [µM]	IC50 [5] [µM]	IC50 (CRMM-1 [6]) [µM]	inhibition (CRMM-1 [7])
CCCCCCCNCC(O)COc1ccccc1C(=O)CCc1ccccc1 (centres undefined)	53.9	6.6	4.6	8.8	5.7	5.6	2.6	
O=C(CC(F)(F)F)NCCCOc1ccc2ccccc2c1C(=O)CCCc1ccccc1	40.1	42.2	19.4	18.5	29.9	21.4	9.8	
Cc1cncc(COc2ccc3ccccc3c2C(=O)CCCc2ccccc2)c1	47.1	38.3	33	29.1	95.4		21.5	
CCCNCC(O)COc1ccccc1C(=O)CCCc1ccccc1 (centres undefined)	62.2	28.7	25.2	33.2	46	4.9	25.3	
CCCOCC(O)COc1ccccc1C(=O)CCc1ccccc1 (centres undefined)	20.1	28.9	53	73.8	65	13.7	20.9	
CCCNCCCOc1ccccc1C(=O)CCc1ccccc1	65	35.9	68.5	66.4	64.8	10	54.5	
CCCCCCCNCCCOc1ccccc1C(=O)CCCc1ccccc1	64.8	0.6	1.3	0.5	0.7	6.3	1.1	
CCC(C)(C)NCCCOc1ccc2ccccc2c1C(=O)CCCc1ccccc1	44.6	3.7	4.1	5.7	10.4	3.1	4.8	
CCCNCC(O)COc1ccccc1C(O)CCc1ccccc1 (centres undefined)	15.7	14.9	73.3	89.6	71.5	18.7	55.4	
CCCN1CC(COc2ccccc2C(=O)CCc2ccccc2)OC1=O (centres undefined)						> 100		inactive
O=C(CCCc1ccccc1)c1c(OCCCNC2CC2)ccc2ccccc12	29.3	16.4	10.4	8	32.4	14.2	10.3	
CCCNCCCOc1cccc2cccc(C(=O)CCCc3ccccc3)c12	59	5.9	8.4	6.8	10.2	8.8	9.8	
O=C(CCCc1ccccc1)c1c(OCCCn2cccc2)ccc2ccccc12		50.6	99.2	75.2	95.5		75.9	
C=CCNCCCOc1ccc2ccccc2c1C(=O)CCCc1ccccc1	55.7	3.1	7.6	11.4	10.5	3.8	2.2	
CCCNCCCOc1cc2c(cc1C(=O)CCCc1ccccc1)OCO2	43	8.2	6.8	15.5	32.7	10.8	6.9	
CCCNCCCOc1c(C(=O)CCCc2ccccc2)ccc2ccccc12	59.3	7.5	11.7	14.5	28.4	10.8	7.2	
O=C(CCCc1ccccc1)c1c(OCCCN2CCC2)ccc2ccccc12	17.9	38.4	32.9	42.1	69.6	32.3	20.6	
CCCNCCCOc1ccccc1C(=O)CCCc1ccccc1	71.6	3.2	2.6	1.7	32.9	2.1	2	
O=C(CCCc1ccccc1)c1c(OCc2cccnc2)ccc2ccccc12		48.5	58.1	24.9	64.9		16	inactive
C#CCNCCCOc1ccc2ccccc2c1C(=O)CCCc1ccccc1	53.2	4	11.7	16	30.7	4.6	6.4	
CCCCCCNCCCOc1ccccc1C(=O)CCCc1ccccc1	57.2	1.6	15.8	9.2	10.6	5.9	6.5	
